# Numbered stars: 1 amine (or outer) side, 2 acyl side, 3 side chain; on linkers, the order of the positions; unused ones are H or OH. Square brackets hold non-standard residues; d marks the D form. Peptide text beside a SMILES is read from it. dAla(N-(6-guanidinohexyl)) = C[C@@H](NCCCCCCNC(=N)N)C(=O)O; X1 = C[C@@H](C(=O)[*:2])N(CCCCCCN)[*:1]; X2 = C[C@H](C(=O)[*:2])N(CCCCCCN)[*:1]; 2Nal = N[C@@H](Cc1ccc2ccccc2c1)C(=O)O; X5 = C[C@H](C(=O)[*:2])N(CCCCCN)[*:1]; Gly(N-2-aminoethyl) = NCCNCC(=O)O; Nspe = C[C@H](NCC(=O)O)c1ccccc1
# Key:
# Plasmodium falciparum = test: Antiplasmodial activity against Plasmodium falciparum 3D7 assessed as inhibition of parasite growth; format: functional, organism-based
# Leishmania amazonensis [1] = test: Antileishmanial activity against Leishmania amazonensis promastigotes assessed as inhibition of parasite growth at 10 uM incubated for 24 hrs relative to control; format: functional; parameters: scale not given: the % may be the effect or the level left
# Leishmania amazonensis [2] = test: Antileishmanial activity against Leishmania amazonensis promastigotes assessed as inhibition of parasite growth at 10 uM incubated for 48 hrs relative to control; format: functional; parameters: scale not given: the % may be the effect or the level left
# Leishmania mexicana [3] = test: Antileishmanial activity against Leishmania mexicana promastigotes; format: functional; details: read-out: ED50 (the source's name)
# Leishmania mexicana [4] = test: Antileishmanial activity against Leishmania mexicana amastigotes; format: functional; details: read-out: ED50 (the source's name)
# [5] = system: Human immunodeficiency virus 1; test: Antiviral activity against HIV-1; format: functional, organism-based
# [6] = biological target: C-X-C chemokine receptor type 4 (Homo sapiens, UniProt P61073); test: Inhibition of CXCR4 receptor (unknown origin)
# C-X-C chemokine receptor type 4, sequence (P61073 whole entry): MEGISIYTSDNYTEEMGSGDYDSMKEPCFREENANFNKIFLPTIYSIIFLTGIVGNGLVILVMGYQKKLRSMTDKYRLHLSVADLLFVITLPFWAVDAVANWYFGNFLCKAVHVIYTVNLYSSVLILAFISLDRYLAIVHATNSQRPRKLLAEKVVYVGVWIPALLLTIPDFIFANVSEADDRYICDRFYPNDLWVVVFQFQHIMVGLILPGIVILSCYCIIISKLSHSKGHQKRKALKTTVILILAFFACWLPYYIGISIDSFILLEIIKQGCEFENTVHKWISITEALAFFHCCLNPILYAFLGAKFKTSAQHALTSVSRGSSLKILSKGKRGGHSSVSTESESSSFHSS
SMILES,IC50 (Plasmodium falciparum) [nM],also measured
CN(C)c1ccc(C(=O)N(CC(=O)NCc2ccccc2)Cc2ccc(C(=O)NO)cc2)cc1,9,–
Cc1ccccc1C(=O)N(CC(=O)NC(C)(C)C)Cc1ccc(C(=O)NO)cc1,110,–
COc1ccccc1C(=O)N(CC(=O)NC(C)(C)C)Cc1ccc(C(=O)NO)cc1,250,–
CC(C)c1ccc(C(=O)N(CC(=O)NCc2ccccc2)Cc2ccc(C(=O)NO)cc2)cc1,5,–
Cc1cc(C)cc(C(=O)N(CC(=O)NCc2ccc(F)cc2)Cc2ccc(C(=O)NO)cc2)c1,80,–
Cc1cccc(CNC(=O)CN(Cc2ccc(C(=O)NO)cc2)C(=O)c2cc(C)cc(C)c2)c1,120,–
CC(C)c1ccc(C(=O)N(CC(=O)NC2CCCCC2)c2ccc(C(=O)NO)cc2)cc1,570,–
CN(C)c1ccc(C(=O)N(Cc2ccc(C(=O)NO)cc2)C(C)(C)C(=O)NC2CCCCC2)cc1,90,–
Cc1cc(C)cc(C(=O)N(CC(=O)NC2CCCCC2)c2ccc(C(=O)NO)cc2)c1,77700,–
CNC(=O)CN(Cc1ccc(C(=O)NO)cc1)C(=O)c1ccccc1C,70,–
Cc1ccc(CNC(=O)CN(Cc2ccc(C(=O)NO)cc2)C(=O)c2cc(C)cc(C)c2)cc1,42,–
Cc1cc(C)cc(C(=O)N(CC(=O)NCc2ccc(Cl)cc2)Cc2ccc(C(=O)NO)cc2)c1,90,–
COc1ccc(CNC(=O)CN(Cc2ccc(C(=O)NO)cc2)C(=O)c2cc(C)cc(C)c2)cc1,33,–
Cc1cc(C)cc(C(=O)N(CC(=O)NCc2ccc(C(C)(C)C)cc2)Cc2ccc(C(=O)NO)cc2)c1,110,–
CNC(=O)CN(Cc1ccc(C(=O)NO)cc1)C(=O)c1cc(C)cc(C)c1,50,–
Cc1cc(C)cc(CNC(=O)CN(Cc2ccc(C(=O)NO)cc2)C(=O)c2cc(C)cc(C)c2)c1,70,–
CN(C)c1ccc(C(=O)N(Cc2ccc(C(=O)NO)cc2)C(C(=O)NC2CCCCC2)c2ccccc2)cc1 (stereo unspecified),390,–
Cc1cc(C)cc(C(=O)N(CC(=O)NCc2cccnc2)Cc2ccc(C(=O)NO)cc2)c1,70,–
CC(C)(C)c1ccc(C(=O)N(CC(=O)NCc2ccccc2)Cc2ccc(C(=O)NO)cc2)cc1,8,–
Cc1cc(C)cc(C(=O)N(CC(=O)NCc2ccccc2)Cc2ccc(C(=O)NO)cc2)c1,37,–
CCCCN(C(C)=O)C(C(=O)NCS(=O)(=O)c1ccc(C)cc1)c1ccccc1 (stereo unspecified),–,Activity (Leishmania amazonensis [1]): 66.83%; Activity (Leishmania amazonensis [2]): 87.87%
C[C@@H](c1ccccc1)N(CC(N)=O)C(=O)CN(C(=O)CN(CCN)C(=O)CN(C(=O)CN(C(=O)CN(CCN)C(=O)CN(C(=O)CN(C(=O)CN(CCN)C(=O)CN(C(=O)CN(C(=O)CNCCN)[C@@H](C)c1ccccc1)[C@@H](C)c1ccccc1)[C@@H](C)c1ccccc1)[C@@H](C)c1ccccc1)[C@@H](C)c1ccccc1)[C@@H](C)c1ccccc1)[C@@H](C)c1ccccc1 (H-[Gly(N-2-aminoethyl)][Nspe][Nspe][Gly(N-2-aminoethyl)][Nspe][Nspe][Gly(N-2-aminoethyl)][Nspe][Nspe][Gly(N-2-aminoethyl)][Nspe][Nspe]-NH2),–,EC50 (Leishmania mexicana [3]): 7000 nM; EC50 (Leishmania mexicana [4]): 17000 nM
C[C@H]1C(=O)N[C@@H](CCCNC(=N)N)C(=O)N[C@@H](Cc2ccc3ccccc3c2)C(=O)NCC(=O)N[C@H](Cc2ccc(O)cc2)C(=O)N1CCCCCCN (cyclo([2Nal]G[dY][X1]R)),–,EC50 [5]: 979000 nM; IC50 [6]: 94000 nM
C[C@@H]1C(=O)N[C@@H](CCCNC(=N)N)C(=O)N[C@@H](Cc2ccc3ccccc3c2)C(=O)NCC(=O)N[C@H](Cc2ccc(O)cc2)C(=O)N1CCCCCCN (cyclo([2Nal]G[dY][X2]R)),–,EC50 [5]: 53000 nM; IC50 [6]: 300 nM
C[C@@H]1C(=O)N[C@@H](CCCNC(=N)N)C(=O)N[C@@H](Cc2ccc3ccccc3c2)C(=O)NCC(=O)N[C@H](Cc2ccc(O)cc2)C(=O)N1CCCCCN (cyclo([2Nal]G[dY][X5]R)),–,IC50 [6]: 1600 nM
C[C@@H]1C(=O)N[C@@H](CCCNC(=N)N)C(=O)N[C@@H](Cc2ccc3ccccc3c2)C(=O)NCC(=O)N[C@H](Cc2ccc(O)cc2)C(=O)N1CCCCCCNC(=N)N (cyclo([dY][dAla(N-(6-guanidinohexyl))]R[2Nal]G)),–,EC50 [5]: 29000 nM; IC50 [6]: 40 nM

# From ChEMBL document CHEMBL6074660, “Recent advances in peptoids as promising antimicrobial agents to target diverse microbial species” (Eur J Med Chem, 2024)
